Measured values reported in patent publication US20100239556A1, “PROMOTING ECM PRODUCTION BY FIBROBLAST CELLS AND/OR PROMOTING MIGRATION OF FIBROBLAST CELLS IN A BIOLOGICAL SYSTEM” (TGR BioScience Pty Ltd., priority 2006, published 2010).

Key:
[1] = tested on: human foreskin fibroblast cells (HFF cells); test: Repeated stimulation of collagen I production; assay type: cell-based; settings: for total collagen I, stimulated twice versus once within a seven day culture period: day 0-2 plus day 2-7 versus day 0-7; for collagen I production after a second stimulation relative to the first stimulation: restimulated after 48 hours, further 5 days
Protocol: Experiments were performed to ensure human fibroblast cells could be stimulated to increase ECM protein production by proteins having peroxidase activity after more than one application of the proteins having peroxidase activity. The capacity to respond repeatedly to the proteins having peroxidase activity provides important utility for the generation of ECM in vitro, particularly given that spent culture media needs to be replaced on a regular basis to maintain the viability of the cells. These experiments were performed using human foreskin fibroblast cells (HFF cells) seeded into 96 well plates at a density of 1.2×10^4 cells/well and cultured for one week in 10% fetal bovine serum/Dulbecco's minimum essential media (10% FBS/DMEM) at 37° C. and 5% CO2 (as described in Example 3). The confluent cells were then starved overnight in serum free DMEM and triplicate wells treated for six hours with MP, ARP and LP as representative proteins having peroxidase activity or the control agents transforming growth factor β2 (TGFβ2; R&D Systems) and 10% FBS (JRH BioSciences). After 48 hours, the conditioned media was collected for measurement of collagen I (as a representative ECM protein) and the cells either restimulated for six hours with fresh solutions containing proteins having peroxidase activity or control agents or the media was replaced with fresh serum free DMEM. The cells were cultured for a further 5 days after which the media was collected a second time for the measurement of collagen I. Media was also collected from replicate wells treated at the start of the experiment and left for 7 days (total culture period) for comparison.

dermis = test: Fibrogenic response after intradermal injection; assay type: in vivo, Sprague-Dawley rats
Protocol: Groups of up to 4-8 female Sprague-Dawley rats were lightly anaesthetized and the dorsum shaved. At different sites on their dorsum, each rat received a bolus, intradermal injection of 4 doses of a protein with peroxidase activity (LP, […]; HRP, 1.25-25 μg; SBP, 1.25-25 μg; or micro-peroxidase [MP], 5-125 μg), a vehicle control or TGFβ2 as a positive control. Arthromyces ramosus peroxidase (ARP) was also injected at one dose of 25 μg. Proteins with peroxidase activity were injected in a volume of 50 μl which was sufficient to create a small blister in the skin that resolved within a few minutes. Across the group of rats, each dose of proteins with peroxidase activity was injected into each of the different injection sites to control for any site-related, intra-rat variation. The rats were returned to their cage and left alone for 3 days after which they were killed by CO2 asphyxiation and the skin at the injection sites collected for analysis. The skin at the injection sites was excised using a 6 mm biopsy punch with each piece bisected and fixed in 10% buffered formalin. Fixed tissue was processed for histological assessment by graded dehydration and mounting in paraffin blocks. Blocks were sectioned and sections stained with haematoxylin and eosin (H&E) and Masson's trichrome for qualitative analysis by an experienced pathologist. H&E stained sections were scored for the “fibroblast reaction” (1+-4+) to reflect the number of fibroblast cells identified at the injection site, with 4+ representing the greatest response. H&E and Massons trichrome stained sections were used to evaluate the amount of deposited, collagen-rich extracellular matrix (ECM) that was associated with the fibroblast reaction at each injection site. The collagen-rich ECM deposition was scored 1+-3+ with 3+ representing the greatest response. The scores were combined across the group of rats and statistical analysis performed using a Kruskal-Wallis one way analysis of variance on ranks (ANOVA) followed by post-hoc t-test comparing the response of the proteins with peroxidase activity to the control using Dunn's or Dunnett's method, p<0.05 was considered significant.

[2] = tested on: fibroblast cells isolated from an adult subject; test: Total protein incorporated into the extracellular matrix (silver stained gel); assay type: cell-based, human; settings: 10% FBS + 50 ug/ml ascorbic acid, 72 hours
Protocol: To ensure the soluble ECM proteins stimulated by the proteins with peroxidase activity are incorporated into the extracellular matrix generated by human fibroblast cells, given that this is a key requirement for the regeneration of collagen-rich tissues like skin and other organs and tissues, total proteins were extracted from the cell matrix. In these experiments, six well culture plates were seeded with fibroblast cells isolated from an adult subject at a density of 1.5×10^5 cells/well and after one week of culture, cells were treated with proteins with peroxidase activity in media containing 10% FBS and with the addition of ascorbic acid (vitamin C) which is a well known cofactor important for the cross linking of collagen molecules to generate polymeric fibres. Wells were supplemented daily to provide a final concentration of 50 ug/ml ascorbic acid in the media. After 72 hours the cell media was removed, the wells washed with warm PBS and the cell matrix extracted.
The total protein content of the cell matrix was solubilised by the addition of 500 ul/well of RIPA buffer (25 mM Tris-HCl pH7.4; 150 mM NaCl; 1% Triton X-100; 0.5% Na deoxycholate; 0.05% SDS). The cell matrix was scraped off the bottom of each well and the plates placed on a shaking platform for 10 minutes. The extracts were transferred to eppendorf tubes, vortexed vigorously and centrifuged at 12,000 rpm, 4° C. for 5 minutes. The DNA pellet was visualised and gently removed and the samples stored at −80° C. until assessment.
Total cell extracts were assessed by polyacrylamide gel electrophoresis. Samples were prepared by adding an appropriate amount of reduced loading buffer to neat cell extracts and boiling for 5 minutes. Samples were then loaded onto a 4-12% BisTris gradient gel (Invitrogen) together with molecular weight markers (Magic Mark XP and SeeBlue prestained markers; Invitrogen) and resolved for […] at 150V in a Novex mini-cell system (Invitrogen) using NuPage MES SDS running buffer. […]

[3] = intradermal, 3 days, over the doses tested
[4] = 50 μg and 125 μg, 3 days, p<0.05

Molecule	total collagen I, stimulated twice versus once within a seven day culture period [1]	collagen I production after a second stimulation relative to the first stimulation [1]	deposition of collagen-rich ECM versus control (dermis; [3])	fibroblast reaction / tissue fibroblast content at the injection site versus control (dermis; [3])	proteinaceous material in the extracellular matrix versus untreated control cells [2]	deposition of collagen-rich ECM versus control (dermis; 5-25 μg, 3 days, p<0.05)	tissue fibroblast content versus control (dermis; 5-25 μg, 3 days, p<0.05)	deposition of collagen rich ECM, histology score (1+-3+) (dermis; 25 μg, 72 hours)	fibroblast reaction, histology score (1+-4+) (dermis; 25 μg, 72 hours)	deposition of collagen-rich ECM versus control (dermis; [4])	fibroblast reaction versus vehicle control (dermis; [4])	number of fibroblasts present at the injection site (H&E images) (dermis; LP 125 μg, TGFβ 0.5 μg, 3 days)	deposition of collagen-rich ECM versus control (dermis; 25 μg, 3 days, p<0.05)	tissue fibroblast content versus control (dermis; 25 μg, 3 days, p<0.05)
microperoxidase [MP]	responded in a similar way to cells treated with TGFβ2	at least equivalent to that obtained with the first stimulation	stimulated the deposition of collagen-rich ECM in a significant, dose dependent manner	significantly increased the tissue fibroblast content	produced much more proteinaceous material	–	–	–	–	–	–	–	–	–
soy bean peroxidase [SBP]	–	–	markedly increased	markedly increased the tissue fibroblast content	produced much more proteinaceous material	statistically significant response	statistically significant response	–	–	–	–	–	–	–
Arthromyces ramosus peroxidase [ARP]	markedly greater total collagen I levels	produced a greater response when stimulated a second time	–	–	–	–	–	two	two	–	–	–	–	–
lactoperoxidase [LP]	markedly greater total collagen I levels	at least equivalent to that obtained with the first stimulation	dose-dependent effect	dose-dependent increase in the fibroblast reaction	produced much more proteinaceous material	–	–	–	–	significant increase compared to the control	statistically significant response	profound increase in the number of fibroblasts	–	–
horse radish peroxidase (protein, UniProt P00433 31-338, looked up) Peroxidase C1A: QLTPTFYDNSCPNVSNIVRDTIVNELRSDPRIAASILRLHFHDCFVNGCDASILLDNTTSFRTEKDAFGNANSARGFPVIDRMKAAVESACPRTVSCADLLTIAAQQSVTLAGGPSWRVPLGRRDSLQAFLDLANANLPAPFFTLPQLKDSFRNVGLNRSSDLVALSGGHTFGKNQCRFIMDRLYNFSNTGLPDPTLNTTYLQTLRGLCPLNGNLSALVDFDLRTPTIFDNKYYVNLEEQKGLIQSDQELFSSPNATDTIPLVRSFANSTQTFFNAFVEAMDRMGNITPLTGTQGQIRLNCRVVNSNS	–	–	markedly increased	markedly increased the tissue fibroblast content	–	–	–	–	–	–	–	–	statistically significant response	statistically significant response
